What was measured:
[1] = test system: Puccinia recondita f. Sp. Tritici; assay: Fungicidal activity against Puccinia recondita f. sp. tritici / wheat / leaf disc preventative (brown rust); format: in vivo; conditions: foliar, 200 ppm in the applied formulation, wheat leaf segments, preventative, compared to untreated control leaf disks, read-out: disease control
In short: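 200 ppm spray on wheat cv. Kanzler leaf segments; spore inoculation +1 day; 19° C., 75% rh, 12 h/12 h light cycle; single rating of % control vs untreated at 7 to 9 days.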

[2] = test system: Glomerella lagenarium (Colletotrichum lagenarium); assay: Fungicidal activity against Glomerella lagenarium (Colletotrichum lagenarium) liquid culture / cucumber / preventative (anthracnose); format: cell-based; conditions: Colletotrichum orbiculare; 20 ppm in the applied formulation; liquid culture (PDB), growth inhibition measured photometrically after 3 to 4 days; compared to untreated control; read-out: disease control
In short: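 Percent activity against the untreated check was derived from photometric growth measurements made 2 to 7 days after conidia in potato dextrose broth were combined with compound at 20 ppm. Cultures were kept dark at 24 °C and 96% humidity.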

[3] = test system: Puccinia recondita f. Sp. Tritici; assay: Fungicidal activity against Puccinia recondita f. sp. tritici / wheat / leaf disc curative (brown rust); format: in vivo; conditions: foliar, 24 h, 200 ppm in the applied formulation, wheat leaf segments, curative (applied 1 day after inoculation), compared to untreated control leaf disks, read-out: disease control
In short: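 Scoring is percent disease control relative to untreated segments, made 6 to 8 days after treatment. Wheat (cv. Kanzler) leaf segments received the formulated, water-diluted compound one day post-inoculation with spores, having been kept dark at 19° C and 75% RH, then incubated under 12 h light/12 h dark at the same temperature and humidity.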

CON(Cc1ccc(-c2noc(C(F)(F)F)n2)cc1)C(=O)OCCCCl [Compound 2.16, 3-chloropropyl N-methoxy-N-[[4-[5-(trifluoromethyl)-1,2,4-oxadiazol-3-yl]phenyl]methyl]-carbamate]
≥ 80%: pest or weed control at 200 ppm [1] | inhibition of growth at 20 ppm [2] | pest or weed control at 200 ppm [3]

COC(=O)N(Cc1ccc(-c2noc(C(F)(F)F)n2)cc1)CC(F)(F)F [Compound 2.22, methyl N-(2,2,2-trifluoroethyl)-N-[[4-[5-(trifluoromethyl)-1,2,4-oxadiazol-3-yl]phenyl]methyl]-carbamate]
≥ 80%: pest or weed control at 200 ppm [1] | inhibition of growth at 20 ppm [2] | pest or weed control at 200 ppm [3]

CON(Cc1ccc(-c2noc(C(F)(F)F)n2)cc1)C(=O)NCC(C)(C)C [Compound 3.10, 3-(2,2-dimethylpropyl)-1-methoxy-1-[[4-[5-(trifluoromethyl)-1,2,4-oxadiazol-3-yl]phenyl]methyl]urea]
≥ 80%: pest or weed control at 200 ppm [1] | inhibition of growth at 20 ppm [2] | pest or weed control at 200 ppm [3]

CCOC(=O)CNC(=O)N(Cc1ccc(-c2noc(C(F)(F)F)n2)cc1)OC [Compound 3.49, ethyl 2-[[methoxy-[[4-[5-(trifluoromethyl)-1,2,4-oxadiazol-3-yl]phenyl]methyl]-carbamoyl]-amino]acetate]
≥ 80%: pest or weed control at 200 ppm [1] | inhibition of growth at 20 ppm [2] | pest or weed control at 200 ppm [3]

COCCN(C)C(=O)N(Cc1ccc(-c2noc(C(F)(F)F)n2)cc1)OC [Compound 3.63, 1-methoxy-3-(2-methoxyethyl)-3-methyl-1-[[4-[5-(trifluoromethyl)-1,2,4-oxadiazol-3-yl]phenyl]methyl]urea]
≥ 80%: pest or weed control at 200 ppm [1] | inhibition of growth at 20 ppm [2] | pest or weed control at 200 ppm [3]

CCN(CC)C(=O)N(Cc1ccc(-c2noc(C(F)(F)F)n2)cc1)OC [Compound 3.64, 1,1-diethyl-3-methoxy-3-[[4-[5-(trifluoromethyl)-1,2,4-oxadiazol-3-yl]phenyl]methyl]urea]
≥ 80%: pest or weed control at 200 ppm [1] | inhibition of growth at 20 ppm [2] | pest or weed control at 200 ppm [3]

CON(Cc1ccc(-c2noc(C(F)(F)F)n2)cc1)C(=O)N(C)C1CCC1 [Compound 3.65, 1-cyclobutyl-3-methoxy-1-methyl-3-[[4-[5-(trifluoromethyl)-1,2,4-oxadiazol-3-yl]phenyl]methyl]urea]
≥ 80%: pest or weed control at 200 ppm [1] | inhibition of growth at 20 ppm [2] | pest or weed control at 200 ppm [3]

COCCN(C)C(=O)N(C)Cc1ccc(-c2noc(C(F)(F)F)n2)cc1 [Compound 3.67, 1-(2-methoxyethyl)-1,3-dimethyl-3-[[4-[5-(trifluoromethyl)-1,2,4-oxadiazol-3-yl]phenyl]methyl]urea]
≥ 80%: pest or weed control at 200 ppm [1] | inhibition of growth at 20 ppm [2] | pest or weed control at 200 ppm [3]

CN(Cc1ccc(-c2noc(C(F)(F)F)n2)cc1)C(=O)N1CCCO1 [Compound 3.69, N-methyl-N-[[4-[5-(trifluoromethyl)-1,2,4-oxadiazol-3-yl]phenyl]methyl]-isoxazolidine-2-carboxamide]
≥ 80%: pest or weed control at 200 ppm [1] | inhibition of growth at 20 ppm [2] | pest or weed control at 200 ppm [3]

CN(CC#N)C(=O)N(C)Cc1ccc(-c2noc(C(F)(F)F)n2)cc1 [Compound 3.70, 1-(cyanomethyl)-1,3-dimethyl-3-[[4-[5-(trifluoromethyl)-1,2,4-oxadiazol-3-yl]phenyl]methyl]urea]
≥ 80%: pest or weed control at 200 ppm [1] | inhibition of growth at 20 ppm [2] | pest or weed control at 200 ppm [3]

CCN(C(=O)N(C)Cc1ccc(-c2noc(C(F)(F)F)n2)cc1)C1CC1 [Compound 3.71, 1-cyclopropyl-1-ethyl-3-methyl-3-[[4-[5-(trifluoromethyl)-1,2,4-oxadiazol-3-yl]phenyl]methyl]urea]
≥ 80%: pest or weed control at 200 ppm [1] | inhibition of growth at 20 ppm [2] | pest or weed control at 200 ppm [3]

CN(Cc1ccc(-c2noc(C(F)(F)F)n2)cc1)C(=O)N(C)C1CC1 [Compound 3.72, 1-cyclopropyl-1,3-dimethyl-3-[[4-[5-(trifluoromethyl)-1,2,4-oxadiazol-3-yl]phenyl]methyl]urea]
≥ 80%: pest or weed control at 200 ppm [1] | inhibition of growth at 20 ppm [2] | pest or weed control at 200 ppm [3]

CCOC(=O)CN(C)C(=O)N(C)Cc1ccc(-c2noc(C(F)(F)F)n2)cc1 [Compound 3.73, ethyl 2-[methyl-[methyl-[[4-[5-(trifluoromethyl)-1,2,4-oxadiazol-3-yl]phenyl]methyl]-carbamoyl- ]amino]acetate]
≥ 80%: pest or weed control at 200 ppm [1] | inhibition of growth at 20 ppm [2] | pest or weed control at 200 ppm [3]

CN(Cc1ccc(-c2noc(C(F)(F)F)n2)cc1)C(=O)N1CCCC1 [Compound 3.74, N-methyl-N-[[4-[5-(trifluoromethyl)-1,2,4-oxadiazol-3-yl]phenyl]methyl]-pyrrolidine-1-carboxamide]
≥ 80%: pest or weed control at 200 ppm [1] | inhibition of growth at 20 ppm [2] | pest or weed control at 200 ppm [3]

CCCN(C)C(=O)N(C)Cc1ccc(-c2noc(C(F)(F)F)n2)cc1 [Compound 3.75, 1,3-dimethyl-1-propyl-3-[[4-[5-(trifluoromethyl)-1,2,4-oxadiazol-3-yl]phenyl]methyl]urea]
≥ 80%: pest or weed control at 200 ppm [1] | inhibition of growth at 20 ppm [2] | pest or weed control at 200 ppm [3]

COCC1(N(C)C(=O)N(C)Cc2ccc(-c3noc(C(F)(F)F)n3)cc2)CC1 [Compound 3.76, 1-[1-(methoxymethyl)-cyclopropyl]-1,3-dimethyl-3-[[4-[5-(trifluoromethyl)-1,2,4-oxadiazol-3-yl]phenyl]methyl]urea]
≥ 80%: pest or weed control at 200 ppm [1] | inhibition of growth at 20 ppm [2] | pest or weed control at 200 ppm [3]

C#CCN(C)C(=O)N(C)Cc1ccc(-c2noc(C(F)(F)F)n2)cc1 [Compound 3.77, 1,3-dimethyl-1-prop-2-ynyl-3-[[4-[5-(trifluoromethyl)-1,2,4-oxadiazol-3-yl]phenyl]methyl]urea]
≥ 80%: pest or weed control at 200 ppm [1] | inhibition of growth at 20 ppm [2] | pest or weed control at 200 ppm [3]

C=CCN(C)C(=O)N(C)Cc1ccc(-c2noc(C(F)(F)F)n2)cc1 [Compound 3.78, 1-allyl-1,3-dimethyl-3-[[4-[5-(trifluoromethyl)-1,2,4-oxadiazol-3-yl]phenyl]methyl]urea]
≥ 80%: pest or weed control at 200 ppm [1] | inhibition of growth at 20 ppm [2] | pest or weed control at 200 ppm [3]

CC(C)N(C)C(=O)N(C)Cc1ccc(-c2noc(C(F)(F)F)n2)cc1 [Compound 3.79, 1-isopropyl-1,3-dimethyl-3-[[4-[5-(trifluoromethyl)-1,2,4-oxadiazol-3-yl]phenyl]methyl]urea]
≥ 80%: pest or weed control at 200 ppm [1] | inhibition of growth at 20 ppm [2] | pest or weed control at 200 ppm [3]

C#CCN(C(=O)N(C)Cc1ccc(-c2noc(C(F)(F)F)n2)cc1)C1CC1 [Compound 3.80, 1-cyclopropyl-3-methyl-1-prop-2-ynyl-3-[[4-[5-(trifluoromethyl)-1,2,4-oxadiazol-3-yl]phenyl]methyl]urea]
≥ 80%: pest or weed control at 200 ppm [1] | inhibition of growth at 20 ppm [2] | pest or weed control at 200 ppm [3]

CCN(CC1CC1)C(=O)N(C)Cc1ccc(-c2noc(C(F)(F)F)n2)cc1 [Compound 3.81, 1-(cyclopropylmethyl)-1-ethyl-3-methyl-3-[[4-[5-(trifluoromethyl)-1,2,4-oxadiazol-3-yl]phenyl]methyl]urea]
≥ 80%: pest or weed control at 200 ppm [1] | inhibition of growth at 20 ppm [2] | pest or weed control at 200 ppm [3]

CN(Cc1ccc(-c2noc(C(F)(F)F)n2)cc1)C(=O)N(C)C1CCC1 [Compound 3.82, 1-cyclobutyl-1,3-dimethyl-3-[[4-[5-(trifluoromethyl)-1,2,4-oxadiazol-3-yl]phenyl]methyl]urea]
≥ 80%: pest or weed control at 200 ppm [1] | inhibition of growth at 20 ppm [2] | pest or weed control at 200 ppm [3]

CN(Cc1ccc(-c2noc(C(F)(F)F)n2)cc1)C(=O)N(C)CC1CC1 [Compound 3.83, 1-(cyclopropylmethyl)-1,3-dimethyl-3-[[4-[5-(trifluoromethyl)-1,2,4-oxadiazol-3-yl]phenyl]methyl]urea]
≥ 80%: pest or weed control at 200 ppm [1] | inhibition of growth at 20 ppm [2] | pest or weed control at 200 ppm [3]

COCCN(CCOC)C(=O)N(C)Cc1ccc(-c2noc(C(F)(F)F)n2)cc1 [Compound 3.84, 1,1-bis(2-methoxyethyl)-3-methyl-3-[[4-[5-(trifluoromethyl)-1,2,4-oxadiazol-3-yl]phenyl]methyl]urea]
≥ 80%: pest or weed control at 200 ppm [1] | inhibition of growth at 20 ppm [2] | pest or weed control at 200 ppm [3]

CCN(Cc1ccc(-c2noc(C(F)(F)F)n2)cc1)C(=O)N(C)CCOC [Compound 3.85, 1-ethyl-3-(2-methoxyethyl)-3-methyl-1-[[4-[5-(trifluoromethyl)-1,2,4-oxadiazol-3-yl]phenyl]methyl]urea]
≥ 80%: pest or weed control at 200 ppm [1] | inhibition of growth at 20 ppm [2] | pest or weed control at 200 ppm [3]

CCN(Cc1ccc(-c2noc(C(F)(F)F)n2)cc1)C(=O)N1CCCO1 [Compound 3.87, N-ethyl-N-[[4-[5-(trifluoromethyl)-1,2,4-oxadiazol-3-yl]phenyl]methyl]-isoxazolidine-2-carboxamide]
≥ 80%: pest or weed control at 200 ppm [1] | inhibition of growth at 20 ppm [2] | pest or weed control at 200 ppm [3]
